# Data as given in US20250289827A1, “MORPHIC FORMS OF A MUTANT BRAF DEGRADER AND METHODS OF MANUFACTURE THEREOF” (C4 THERAPEUTICS, INC., priority 2022, published 2025).
# Where two headings read alike, the source gives them in different places.
# Key:
# [1] = Approximate solubility at 25° C. and 50° C. (visual); format: physicochemical
# Description: About 5 mg of Compound 1 Form A was weighed to a 2 mL glass vial. 20 μL aliquots of each solvent were added to dissolve the drug substance at 25° C. About 10 mg of Compound 1 Form A was weighed to a 2 mL glass vial. 20 μL aliquots of each solvent were added to dissolve the drug substance at 50° C. Vortex and sonication were applied to assist dissolution. Maximum volume of each solvent added was 1 mL. Approximate solubility was determined by visual observation.
# About 5 mg of Compound 1 Form B was weighed to a 2 mL glass vial. 20 μL aliquots of each solvent were added to dissolve the drug substance at 25° C. About 10 mg of Compound 1 Form B was weighed to a 2 mL glass vial. […] aliquots of each solvent were added to dissolve the drug substance at 50° C. Vortex and sonication were applied to assist dissolution. Maximum volume of each solvent added is 1 mL. Approximate solubility was determined by visual observation.
# [2] = Crystallization by heat-cool DSC; format: physicochemical; details: for Thermal events: Melting Tonset / Thermal events: enthalpy: heated to 185° C.; for Thermal events: Delta Cp / Thermal events: Tg: reheated to 250° C.
# Description: Polymorphic behavior of Compound 1 Form A was investigated by two different heat-cool DSC cycles. A Tzero pan and a Tzero hermetic lid with a pin hole were used for this experiment. No new crystalline form was obtained by heat-cool DSC.
# [3] = Salt screening by re-slurry; format: physicochemical
# [4] = tested on: A2058 human melanoma xenografts; experiment: Efficacy and body weight in A2058 xenografts (Example 39); format: in vivo
# Description: Compound 1, encorafenib and dabrafenib were administered to BALB/c nude mice bearing A2058 xenografts orally for 28 days. Compound 1 was dosed twice per day (BID) and dosed at 10 mg/kg from day 0. Encorafenib and dabrafenib were dosed daily (QD) from day 1. Encorafenib was dosed at 35 mg/kg. Dabrafenib was dosed at 100 mg/kg.
# Each mouse was inoculated subcutaneously at the right flank with A2058 cells (5×106) in 0.2 mL of PBS supplemented with Matrigel (PBS:Matrigel=1:1) for tumor development. Animals were grouped for efficacy study when the average tumor volume reached 130 mm^3 on day 7 after tumor inoculation and 412 mm^3 for PKPD study on day 14.
# At the time of routine monitoring, the animals were checked daily for any effects of tumor growth and treatments on normal behavior such as mobility, food and water consumption (by looking only), body weight gain/loss (body weights were measured twice weekly), eye/hair matting and any other abnormal effect as stated in the protocol. Death and observed clinical signs were recorded on the basis of the numbers of animals within each subset.
# Prior to the onset of drug treatment, mice were measured for tumor size in two dimensions using a caliper, and the tumor volume (mm^3) was calculated using formula V=0.5 a×b^2 where a and b are the long and short diameters of the tumor in mm, respectively. Mice were randomized into different treatment groups based on the tumor volume.
# The major endpoint was to see if the tumor growth could be delayed or mice could be cured. The tumor size was then used for calculations of T/C value. The T/C value (in percent) is an indication of antitumor effectiveness; T and C are the mean volumes of the treated and control groups, respectively on specified day.
# Tumor growth inhibition (TGI) was calculated for each group using the formula: TGI (%) 20=[1−(Ti−T0)/(Ci−C0)]×100; Ti is the average tumor volume of a treatment group on a given day, TO is the average tumor volume of the treatment group on the day of treatment start, Ci is the average tumor volume of the vehicle control group on the same day with Ti, and C0 is the average tumor volume of the vehicle group on the day of treatment start.
# A one-way ANOVA followed by Dunnett's multiple comparison test was performed to compare tumor volume among vehicle group and treatment groups. All data were analyzed using GraphPad Prism, * indicates p<0.01, **** indicates p<0.0001 and ns indicates p>0.05.
# [5] = tested on: patient-derived xenograft (PDX) of non-small cell lung carcinoma (NSCLC) with BRAF V600E mutation; experiment: Efficacy in BRAF V600E NSCLC PDX model
# [6] = Cycle 1 (cooling at 20° C./min)
# [7] = PG-D24, Compound 1 10 mg/kg BID, encorafenib 35 mg/kg QD, dabrafenib 100 mg/kg QD
compound,measurement,setting,value
CCN(C)S(=O)(=O)Nc1ccc(F)c(Oc2ccc3ncn([C@H]4COC5(CCN(C(=O)CC6(O)CCN(c7cc8c(cc7F)c(N7CCC(=O)NC7=O)nn8C)CC6)CC5)C4)c(=O)c3c2)c1C#N [Compound 1 Form A],solubility,"[1]; 1,4-Dioxane, 25° C., listed as Form A",>250000 µg/mL
same,solubility,"[1]; 1,4-Dioxane, 50° C., listed as Form A",>500000 µg/mL
same,solubility,"[1]; 2-MeTHF, 25 °C, organic solvent or mixture, thermodynamic from solid, 2-MeTHF, 25° C., read-out: Solubility",5000 to 7000 µg/mL
same,solubility,"[1]; 2-MeTHF, 50 °C, organic solvent or mixture, thermodynamic from solid, 2-MeTHF, 50° C., read-out: Solubility",< 10000 µg/mL
same,solubility,"[1]; Acetone, 25° C., listed as Form A",13000 to 17000 µg/mL
same,solubility,"[1]; Acetone, 50° C., listed as Form A",25000 to 29000 µg/mL
same,solubility,"[1]; Acetonitrile, 25° C., listed as Form A",13000 to 17000 µg/mL
same,solubility,"[1]; Acetonitrile, 50° C., listed as Form A",25000 to 33000 µg/mL
same,solubility,"[1]; DCM, 25° C., listed as Form A",>250000 µg/mL
same,solubility,"[1]; DMSO, 25 °C, organic solvent or mixture, thermodynamic from solid, DMSO, 25° C., read-out: Solubility",≥ 250000 µg/mL
same,solubility,"[1]; DMSO, 50 °C, organic solvent or mixture, thermodynamic from solid, DMSO, 50° C., read-out: Solubility",> 500000 µg/mL
same,solubility,"[1]; MTBE, 25 °C, organic solvent or mixture, thermodynamic from solid, MTBE, 25° C., read-out: Solubility",< 5000 µg/mL
same,solubility,"[1]; MTBE, 50 °C, organic solvent or mixture, thermodynamic from solid, MTBE, 50° C., read-out: Solubility",< 10000 µg/mL
same,solubility,"[1]; THF, 25° C., listed as Form A",>250000 µg/mL
same,solubility,"[1]; THF, 50° C., listed as Form A",>500000 µg/mL
same,solubility,"[1]; ethanol, 25 °C, organic solvent or mixture, thermodynamic from solid, Ethanol, 25° C., read-out: Solubility",< 5000 µg/mL
same,solubility,"[1]; ethanol, 50 °C, organic solvent or mixture, thermodynamic from solid, Ethanol, 50° C., read-out: Solubility",< 10000 µg/mL
same,solubility,"[1]; ethyl acetate, 25 °C, organic solvent or mixture, thermodynamic from solid, Ethyl acetate, 25° C., read-out: Solubility",< 5000 µg/mL
same,solubility,"[1]; ethyl acetate, 50 °C, organic solvent or mixture, thermodynamic from solid, Ethyl acetate, 50° C., read-out: Solubility",< 10000 µg/mL
same,solubility,"[1]; heptane, 25 °C, organic solvent or mixture, thermodynamic from solid, Heptane, 25° C., read-out: Solubility",< 5000 µg/mL
same,solubility,"[1]; heptane, 50 °C, organic solvent or mixture, thermodynamic from solid, Heptane, 50° C., read-out: Solubility",< 10000 µg/mL
same,solubility,"[1]; isopropanol, 25 °C, organic solvent or mixture, thermodynamic from solid, Isopropanol, 25° C., read-out: Solubility",< 5000 µg/mL
same,solubility,"[1]; isopropanol, 50 °C, organic solvent or mixture, thermodynamic from solid, Isopropanol, 50° C., read-out: Solubility",< 10000 µg/mL
same,solubility,"[1]; isopropyl acetate, 25 °C, organic solvent or mixture, thermodynamic from solid, Isopropyl acetate, 25° C., read-out: Solubility",< 5000 µg/mL
same,solubility,"[1]; isopropyl acetate, 50 °C, organic solvent or mixture, thermodynamic from solid, Isopropyl acetate, 50° C., read-out: Solubility",< 10000 µg/mL
same,solubility,"[1]; methanol, 25 °C, organic solvent or mixture, thermodynamic from solid, Methanol, 25° C., read-out: Solubility",~3000 µg/mL
same,solubility,"[1]; methanol, 50 °C, organic solvent or mixture, thermodynamic from solid, Methanol, 50° C., read-out: Solubility",5000 to 10000 µg/mL
same,solubility,"[1]; methyl ethyl ketone, 25 °C, organic solvent or mixture, thermodynamic from solid, Methyl ethyl ketone, 25° C., read-out: Solubility",14000 to 17000 µg/mL
same,solubility,"[1]; methyl ethyl ketone, 50 °C, organic solvent or mixture, thermodynamic from solid, Methyl ethyl ketone, 50° C., read-out: Solubility",25000 to 33000 µg/mL
same,solubility,"[1]; toluene, 25 °C, organic solvent or mixture, thermodynamic from solid, Toluene, 25° C., read-out: Solubility",< 5000 µg/mL
same,solubility,"[1]; toluene, 50 °C, organic solvent or mixture, thermodynamic from solid, Toluene, 50° C., read-out: Solubility",< 10000 µg/mL
same,solubility,"[1]; water, 25 °C, water, thermodynamic from solid, Water, 25° C., read-out: Solubility",< 5000 µg/mL
same,solubility,"[1]; water, 50 °C, water, thermodynamic from solid, Water, 50° C., read-out: Solubility",< 10000 µg/mL
same,Thermal events: Melting Tonset,[2]; [6],"Tonset 167.7° C., enthalpy about"
same,Thermal events: enthalpy,[2]; [6],~16 J/g
same,Thermal events: Delta Cp,[2]; [6],Delta Cp 0.3 J(g. ° C.)
same,Thermal events: Tg,[2]; [6],"Heated to 250° C.: Tg 149.8° C.,"
same,Thermal events: Melting Tonset,[2]; Cycle 2 (cooling at 2° C./min),"Tonset 167.7° C., enthalpy about"
same,Thermal events: enthalpy,[2]; Cycle 2 (cooling at 2° C./min),~17 J/g
same,Thermal events: Delta Cp,[2]; Cycle 2 (cooling at 2° C./min),Delta Cp 0.2 J(g. ° C.)
same,Thermal events: Tg,[2]; Cycle 2 (cooling at 2° C./min),"Heated to 250° C.: Tg 145.9° C.,"
same,Re-slurry result,"[3]; Ca(OH)2, Ethyl Acetate",Almost amorphous
same,Re-slurry result,"[3]; Choline, Ethyl Acetate",Sticky material
same,Re-slurry result,"[3]; Choline, MTBE",Sticky material
same,Re-slurry result,"[3]; Choline, Toluene",Sticky material
same,Re-slurry result,"[3]; Methylglucamine, Ethyl Acetate",Form A
CC(C)(C)c1nc(-c2cccc(NS(=O)(=O)c3c(F)cccc3F)c2F)c(-c2ccnc(N)n2)s1 [dabrafenib],Body weight loss (individual mice),"[4]; 100 mg/kg, Group 4, PG-D21 (one mouse also PG-D28)",over 10%
same,T/C,[4]; [7],77.37%
same,TGI,[4]; [7],23.87%
same,TV (mean tumor volume),[4]; [7],1948 mm^3
same,TGI,"[4]; PG-D24, Compound 1 10 mg/kg p.o. BID, Encorafenib 35 mg/kg p.o. QD, Dabrafenib 100 mg/kg p.o. QD",23.87%
same,Tumor Size on PG-D24,"[4]; PG-D24, Mean ± SEM, Compound 1 10 mg/kg p.o. BID, Encorafenib 35 mg/kg p.o. QD, Dabrafenib 100 mg/kg p.o. QD",1948 ± 150 mm^3
same,Antitumor activity compared with vehicle group,"[4]; PG-D24, one-way ANOVA, Dunnett",no significant antitumor activity
same,T/C,"[4]; PG-D24, treated / control average tumor volume, Compound 1 10 mg/kg p.o. BID, Encorafenib 35 mg/kg p.o. QD, Dabrafenib 100 mg/kg p.o. QD",77.37%
same,TGI,"[4]; PG-D28, Compound 1 10 mg/kg p.o. BID, Encorafenib 35 mg/kg p.o. QD, Dabrafenib 100 mg/kg p.o. QD",23.96%
same,Tumor Size on PG-D28,"[4]; PG-D28, Mean ± SEM, Compound 1 10 mg/kg p.o. BID, Encorafenib 35 mg/kg p.o. QD, Dabrafenib 100 mg/kg p.o. QD",2227 ± 140 mm^3
same,T/C,"[4]; PG-D28, treated / control average tumor volume, Compound 1 10 mg/kg p.o. BID, Encorafenib 35 mg/kg p.o. QD, Dabrafenib 100 mg/kg p.o. QD",77.13%
same,Tumor Volume Trace over Time,"[4]; day 0 (baseline), Mean ± SEM, Compound 1 10 mg/kg p.o. BID × 28 days, Encorafenib 35 mg/kg p.o. QD × 28 days, Dabrafenib 100 mg/kg p.o. QD × 28 days",130 ± 4 mm^3
same,Tumor Volume Trace over Time,"[4]; day 3, Mean ± SEM, Compound 1 10 mg/kg p.o. BID, Encorafenib 35 mg/kg p.o. QD, Dabrafenib 100 mg/kg p.o. QD",203 ± 6 mm^3
same,Tumor Volume Trace over Time,"[4]; day 7, Mean ± SEM, Compound 1 10 mg/kg p.o. BID, Encorafenib 35 mg/kg p.o. QD, Dabrafenib 100 mg/kg p.o. QD",361 ± 28 mm^3
same,Tumor Volume Trace over Time,"[4]; day 10, Mean ± SEM, Compound 1 10 mg/kg p.o. BID, Encorafenib 35 mg/kg p.o. QD, Dabrafenib 100 mg/kg p.o. QD",572 ± 29 mm^3
same,Tumor Volume Trace over Time,"[4]; day 14, Mean ± SEM, Compound 1 10 mg/kg p.o. BID, Encorafenib 35 mg/kg p.o. QD, Dabrafenib 100 mg/kg p.o. QD",921 ± 74 mm^3
same,Tumor Volume Trace over Time,"[4]; day 17, Mean ± SEM, Compound 1 10 mg/kg p.o. BID, Encorafenib 35 mg/kg p.o. QD, Dabrafenib 100 mg/kg p.o. QD",1232 ± 105 mm^3
same,Tumor Volume Trace over Time,"[4]; day 21, Mean ± SEM, Compound 1 10 mg/kg p.o. BID, Encorafenib 35 mg/kg p.o. QD, Dabrafenib 100 mg/kg p.o. QD",1558 ± 132 mm^3
same,Tumor Volume Trace over Time,"[4]; day 24, Mean ± SEM, Compound 1 10 mg/kg p.o. BID, Encorafenib 35 mg/kg p.o. QD, Dabrafenib 100 mg/kg p.o. QD",1948 ± 150 mm^3
same,Tumor Volume Trace over Time,"[4]; day 28, Mean ± SEM, Compound 1 10 mg/kg p.o. BID, Encorafenib 35 mg/kg p.o. QD, Dabrafenib 100 mg/kg p.o. QD",2227 ± 140 mm^3
same,Status by day 28,[5]; dabrafenib 100 mg/kg PO QD plus trametinib 0.1 mg/kg PO QD,reached tumor burden endpoint
same,Status by day 28,"[5]; single agent, trametinib 0.1 mg/kg PO QD, dabrafenib 100 mg/kg PO QD",reached tumor burden endpoint
